The target of assay [1] is T1, SARS-CoV-2 PLpro (nsp3 1564–1878) (Severe acute respiratory syndrome coronavirus 2, UniProt P0DTD1). The assay can be described thus: biochemical. On the set-up: FRET-quenched peptide (Pro3) cleavage by PLpro, 10 min pre-incubation, slope over 20 min, normalised to no-compound control. The note with it: low concentration screen, read-out: % of control remaining.
Assay [2] concerns the target T1, SARS-CoV-2 PLpro (nsp3 1564–1878). The assay can be described thus: biochemical. Also on record: FRET-quenched peptide (Pro3) cleavage by PLpro, 10 min pre-incubation, slope over 20 min, normalised to no-compound control. The conditions noted are these: high concentration screen, read-out: % of control remaining.

Where a name gives a salt, the structure may show the parent alone. Read-outs that look alike come from different tables or passages of the source.

Turning to `O=C(O)CNC(=O)c1cccc(O)c1` [3-Hydroxyhippuric acid], in assay [1] (Well no.=7219), the remaining activity at 1.25 µM turned out to be 102%. The remaining activity at 3.75 µM in assay [2] (Well no.=7219) stood at 99.6%.
As to `C[C@]12CC[C@@H]3c4ccc(O)cc4CC[C@H]3[C@@H]1CC[C@H]2O` [Alpha-Estradiol], the remaining activity at 1.25 µM in assay [1] (Well no.=6693) was found to be 98.9%. Moreover, the remaining activity at 3.75 µM in assay [2] (Well no.=6693) worked out at 93.1%.
`O=C(O)CCCC[C@@H]1CCSS1` [Lipoic acid]: the remaining activity at 1.25 µM in assay [1] (Well no.=6915) is 105%. Further, the remaining activity at 3.75 µM in assay [2] (Well no.=6915) was 104%.
Turning to `C=C[C@H]1CN2CC[C@H]1C[C@@H]2[C@@H](O)c1ccnc2ccccc12` [(+)-Cinchonine], the remaining activity at 1.25 µM in assay [1] (Well no.=3198) was 109%. Further, the remaining activity at 3.75 µM in assay [2] (Well no.=3198) worked out at 107%.
`O=C(N[C@@H](Cc1ccccc1)C(=O)CCl)OCc1ccccc1` [Z-L-Phe chloromethyl ketone]: the remaining activity at 1.25 µM in assay [1] (Well no.=238) was 100%. Also, the remaining activity at 3.75 µM in assay [2] (Well no.=238) is 101%.
As to `CCOc1cc2ncc(C#N)c(Nc3ccc(F)c(Cl)c3)c2cc1NC(=O)/C=C/CN(C)C` [(2E)-N-[4-(3-chloro-4-fluoroanilino)-3-cyano-7-ethoxy-6-quinolinyl]-4-(dimethylamino)-2-butenamide], the remaining activity at 1.25 µM in assay [1] (Well no.=5707) worked out at 101%. For the same compound, the remaining activity at 3.75 µM in assay [2] (Well no.=5707) is 102%.
Turning to `C[C@@H](NCCCc1cccc(C(F)(F)F)c1)c1cccc2ccccc12` [Cinacalcet (hydrochloride)], the remaining activity at 1.25 µM in assay [1] (Well no.=7426) turned out to be 104%. In addition, in assay [2] (Well no.=7426), the remaining activity at 3.75 µM was found to be 104%.
As for `COc1cc(Cc2cnc(N)nc2N)cc(OC)c1OC` [Trimethoprim], the remaining activity at 1.25 µM worked out at 96% in assay [1] (Well no.=1516) and 99.3% in assay [1] (Well no.=2006). Also, the remaining activity at 3.75 µM in assay [2] (Well no.=1516) was determined as 94.5%; in assay [2] (Well no.=2006), 97.8%.
Turning to `CCCCC/C=C\C\C=C/C=C/C=C/[C@@H](SC[C@H](N)C(=O)NCC(=O)O)[C@@H](O)CCCC(=O)O` [Leukotriene D4], the remaining activity at 1.25 µM in assay [1] (Well no.=4431) turned out to be 100%. Also, in assay [2] (Well no.=4431), the remaining activity at 3.75 µM was 98.6%.
Turning to `CN1CCC(NC(=O)c2cc(-c3c(O)cc(O)cc3Oc3ccc([N+](=O)[O-])cc3)on2)CC1` [NMS-E973], the remaining activity at 1.25 µM in assay [1] (Well no.=8620) was 94.8%. Also, the remaining activity at 3.75 µM in assay [2] (Well no.=8620) amounted to 89.2%.
Turning to `CSc1ccc2c(c1)N(CCC1CCCCN1C)c1ccccc1S2` (stereo not drawn) [Thioridazine hydrochloride], in assay [1] (Well no.=1422), the remaining activity at 1.25 µM was 96.4%. Moreover, the remaining activity at 3.75 µM in assay [2] (Well no.=1422) was determined as 95.6%.
Take `C[C@@]12CCc3occc3[C@H]1CC[C@@]13C[C@@H](CC[C@H]12)[C@@](O)(CO)C3` [Cafestol]: the remaining activity at 1.25 µM in assay [1] (Well no.=3523) was found to be 102%. Further, the remaining activity at 3.75 µM in assay [2] (Well no.=3523) amounted to 96.8%.
Regarding `CCc1c(O)cc(O)c(C(=O)c2ccc(OCCN3CCOCC3)c(OC)c2)c1CC(=O)N(CCOC)CCOC` [KW-2478], in assay [1] (Well no.=5342), the remaining activity at 1.25 µM stood at 93.8%. In addition, in assay [2] (Well no.=5342), the remaining activity at 3.75 µM worked out at 94.5%.
Turning to `Cc1cn([C@@H]2C[C@@H](O)[C@H](CO)O2)c(=O)[nH]c1=O` [Telbivudine], the values for the remaining activity at 1.25 µM in assay [1] (Well no.=8380) and in assay [1] (Well no.=8839) were 92.4% and 98.6%, respectively. The remaining activity at 3.75 µM in assay [2] (Well no.=8380) was 92.3%; in assay [2] (Well no.=8839), 96.3%.
Consider `O=C(O)/C=C/C(=O)O` [Fumaric acid], for which the remaining activity at 1.25 µM in assay [1] (Well no.=6539) worked out at 101%. Besides, in assay [2] (Well no.=6539), the remaining activity at 3.75 µM turned out to be 82.4%.
For the compound `CC(C)OC(=O)C1=CN(C(=O)c2ccc(F)c(F)c2)CC(C)(C)c2c1[nH]c1ccccc21` [WAY-362450], the remaining activity at 1.25 µM in assay [1] (Well no.=4928) came out at 95.1%. The remaining activity at 3.75 µM in assay [2] (Well no.=4928) came out at 96.2%.
Turning to `N#C[C@@H]1C[C@@H]2C[C@@H]2N1C(=O)[C@@H](N)C12CC3CC(CC(O)(C3)C1)C2` [Saxagliptin hydrate], in assay [1] (Well no.=8254), the remaining activity at 1.25 µM was 104%. In assay [2] (Well no.=8254), the remaining activity at 3.75 µM came to 102%.
Turning to `Clc1ccc(C(Cn2ccnc2)OCc2ccc(Sc3ccccc3)cc2)c(Cl)c1` (stereo not drawn) [Fenticonazole nitrate], the remaining activity at 1.25 µM in assay [1] (Well no.=5044) was determined as 96.2%. Moreover, the remaining activity at 3.75 µM in assay [2] (Well no.=5044) came out at 95.9%.
Turning to `COC[C@H]1OC(=O)c2coc3c2[C@@]1(C)C1=C(C3=O)C2CCC(=O)[C@@]2(C)C[C@H]1OC(C)=O` (stereo partly drawn) [Wortmannin from Penicillium funiculosum], the remaining activity at 1.25 µM in assay [1] (Well no.=1386) is 92.9%. For the same compound, in assay [2] (Well no.=1386), the remaining activity at 3.75 µM turned out to be 94.7%.
For `Cc1ccc(NC(=O)CCCCCC(=O)Nc2ccccc2N)cc1` [Pimelic Diphenylamide 106], in assay [1] (Well no.=5991), the remaining activity at 1.25 µM was found to be 101%. Moreover, the remaining activity at 3.75 µM in assay [2] (Well no.=5991) was determined as 99.4%.
Turning to `CCCCCCCC(=O)N[C@H](CN1CCCC1)[C@H](O)c1ccc2c(c1)OCCO2` [Eliglustat], in assay [1] (Well no.=8530), the remaining activity at 1.25 µM was determined as 100%. For the same compound, in assay [2] (Well no.=8530), the remaining activity at 3.75 µM was determined as 99%.
On to `COc1cc(/C=C/C(=O)CC(=O)/C=C/c2ccc(O)c(OC)c2)ccc1O` [Curcumin], for which the figures for the remaining activity at 1.25 µM in assay [1] (Well no.=3177) and in assay [1] (Well no.=3949) were 112% and 106%, respectively. For the same compound, the remaining activity at 3.75 µM in assay [2] (Well no.=3177) stood at 105%; in assay [2] (Well no.=3949) it was 102%.
For the compound `CCCCCCCC[C@H](O)/C=C/C=C\C=C\[C@H](O)CCCC(=O)O` [Leukotriene B3], in assay [1] (Well no.=4421), the remaining activity at 1.25 µM was 102%. Besides, the remaining activity at 3.75 µM in assay [2] (Well no.=4421) was 101%.
On to `Nc1nc(CC(=O)Nc2ccc(CCNC[C@H](O)c3ccccc3)cc2)cs1` [Mirabegron (YM178)], for which the remaining activity at 1.25 µM in assay [1] (Well no.=4652) was found to be 99.3%. In addition, the remaining activity at 3.75 µM in assay [2] (Well no.=4652) worked out at 97.1%.
`COc1ccc([C@@H]2Sc3ccccc3N(CCN(C)C)C(=O)[C@@H]2OC(C)=O)cc1` [Diltiazem]: the remaining activity at 1.25 µM in assay [1] (Well no.=1713) amounted to 104%. Moreover, the remaining activity at 3.75 µM in assay [2] (Well no.=1713) came to 102%.
Turning to `S=C(S)N1CCCC1` [Ammonium pyrrolidinedithiocarbamate], the remaining activity at 1.25 µM in assay [1] (Well no.=1495) was 102%. In addition, in assay [2] (Well no.=1495), the remaining activity at 3.75 µM turned out to be 97.9%.
For the compound `CN1CCN(CCc2ccc(Cl)c(Cl)c2)CC1` [BD1063 (dhydrochloride)], the remaining activity at 1.25 µM in assay [1] (Well no.=8057) turned out to be 90.2%. For the same compound, the remaining activity at 3.75 µM in assay [2] (Well no.=8057) is 95.3%.
For the compound `CNC(=O)CN1CCC(Oc2cc3c(Nc4cccc(Cl)c4F)ncnc3cc2OC)CC1` [AZD8931], the remaining activity at 1.25 µM in assay [1] (Well no.=5144) is 103%. Moreover, the remaining activity at 3.75 µM in assay [2] (Well no.=5144) was found to be 102%.
`CCCn1cnc2c1c(=O)n(CCCCC(C)=O)c(=O)n2C` [Propentofylline]: the remaining activity at 1.25 µM in assay [1] (Well no.=1403) came out at 95.1%. In addition, the remaining activity at 3.75 µM in assay [2] (Well no.=1403) amounted to 94%.
Consider `CCC(COC(=O)c1cc(OC)c(OC)c(OC)c1)(c1ccccc1)N(C)C` (stereo not drawn) [Trimebutine], for which, in assay [1] (Well no.=4762), the remaining activity at 1.25 µM came to 103%. The remaining activity at 3.75 µM in assay [2] (Well no.=4762) came out at 105%.

Source of the values: publication PMC8286840, “Identifying SARS-CoV-2 antiviral compounds by screening for small molecule inhibitors of Nsp3 papain-like protease” (Biochemical Journal, 2021).
